Laboratory results as given in PubChem BioAssay AID743417 (Broad Institute, 2014).
Records with an inconclusive call do not appear. Activity calls are given as the source filed them.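 The calls were made as follows: active = compounds lowering the luciferase signal with a fitted half-maximal dose at most twice their top valid dose (cut at about 30 µM in these data); inconclusive = flat fits with moderate signal loss, or poor fits; inactive = the rest.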

Tested on: Clone20 osteoblast Shn3 3'UTR firefly luciferase, 24 h
Assay: Schnurri-3 3'UTR-luciferase signal suppressors – cell-based, Clone20 osteoblasts, luminescence, dry powder, set 2, dose response (AID 743417)

Structure (SMILES)	AC50
CCOC(=O)/C(=C\c1ccc([N+](=O)[O-])cc1)C(=O)c1cc(C(C)=O)c(Nc2ccccc2)s1	2470 nM
CC(C)C(=O)NC(c1cccc([N+](=O)[O-])c1)c1ccc2cccnc2c1O (configuration not stated)	2570 nM
C#CC(=O)N(c1ccc(OC)c(OC)c1)C(C(=O)NC1CCCC1)c1cccs1 (configuration not stated)	3320 nM
Cc1ccc(S(=O)(=O)N2[C@H](c3cccc(Cl)c3)CC(=O)[C@@H]3CN(S(=O)(=O)c4ccccc4C)[C@H](c4ccc(Cl)cc4)C[C@@H]32)cc1	289 nM
CCOc1cc(CNCc2ccccc2)ccc1OCc1ccc(Cl)cc1	6690 nM
O=[N+]([O-])c1c(Nc2cccc(O)c2)cc(Cl)c2nonc12	683 nM
COc1ccc(C(=O)C(C)OC(=O)c2cccc(S(=O)(=O)Nc3cc(Cl)c(OC)cc3OC)c2)cc1 (configuration not stated)	5540 nM
Cc1csc(=O)n1CC(=O)OCC(=O)c1c(N)n(C)c(=O)n(C)c1=O	27100 nM
c1ccc(-c2cc3nc(NCC4CC4)nc(NCC4CCCCC4)c3s2)cc1	2670 nM
COc1cccc(-n2c(C)nc3c(cnn3-c3ccc(Cl)cc3)c2=O)c1	391 nM
Cc1ccccc1C(=O)N1CCN(c2ccc(NC(=O)CSc3ccc(Cl)cc3)cc2)CC1	4230 nM
O=C(Nc1ccc([N+](=O)[O-])cc1)Nc1nc(-c2ccc(Cl)s2)cs1	3190 nM
Cn1c2c(c(=O)n(C)c1=O)C(C(F)(F)F)(C(F)(F)F)N=C(c1ccc(Cl)cc1)N2	1470 nM
C=C1C(=O)O[C@@H]2C[C@@H](C)[C@@H]3C=CC(=O)[C@@]3(C)[C@@H](O)[C@H]12	825 nM
CC1CC(C)(C)CC2(C1)NC(=O)N(CC(=O)N1CCN(Cc3ccc(C#N)cc3)CC1)C2=O (configuration not stated)	1470 nM
Cc1nc2ccccc2n1Cc1ccc(Cl)cc1	1460 nM
COc1ccccc1CNc1nc(Nc2cccc(-c3cnco3)c2)c2sccc2n1	5610 nM
CS(=O)(=O)c1ccc(C(=O)OCC(=O)N2CCN(CCC3CCCCC3)CC2)cc1[N+](=O)[O-]	2410 nM
O=C(OCC12CC3CC(CC(C3)C1)C2)c1ccc(NCc2cc(O)ccc2O)cc1	3250 nM
COc1ccc(S(=O)(=O)N2CCN(C(=O)c3cc(-c4ccc(Br)cc4)n[nH]3)CC2)cc1OC	4550 nM
COc1ccc(C[C@H]2COC(=O)[C@@H]2Cc2ccc(OC3OC(CO)C(O)C(O)C3O)c(OC)c2)cc1OC (some centres not stated)	4430 nM
O=C(NNC(=O)C1CCN(S(=O)(=O)c2ccc(Cl)cc2)CC1)c1ccccc1O	18500 nM
COC(=O)C1=C(C(=O)OC)[C@@H]2N(Cc3ccccc3)c3ccccc3[C@@]23C[C@@H](C(=O)OC)N(C(=O)c2ccc(Br)cc2)C3=N1	8520 nM
CCc1ccc(NC(=O)c2nc(S(=O)(=O)Cc3ccccc3)ncc2Cl)cc1	551 nM

Structure (SMILES)	AC50
Cc1c(C(C)C)c(=O)n(-c2ccc(S(=O)(=O)NC3CCCCC3)cc2)n1C	1060 nM
COc1ccc(NC(=O)/C(Cl)=C(/Cl)S(=O)Cc2ccc(Cl)cc2)cn1 (configuration not stated)	1340 nM
Cc1cccc(NC(=O)c2nc(S(=O)(=O)Cc3ccccc3)ncc2Cl)c1	2660 nM
O=C1NCCOC(=O)[C@@H](Cc2ccc(F)cc2)CC/C=C/C[C@@H]1CC(=O)N(CCO)Cc1ccccc1	> 70000 nM (inactive)
CC(C)(O)C#Cc1ccc([C@@H]2C[C@H]3CN(c4ccccc4)C(=O)[C@]34CCCN24)s1	4930 nM
O=C(/C=C/c1ccc(O)c(O)c1)OCCc1ccccc1	877 nM
O=C(Nc1ccc(Cl)cc1)Nc1ccc(N2CCCC2)c(S(=O)(=O)Nc2ccccc2Cl)c1	5200 nM
O=[N+]([O-])c1c(NCCCO)cc(Sc2ccc(Cl)cc2)c2nonc12	5630 nM
Cc1ccc(NC(=O)C2CCN(S(=O)(=O)c3ccc(N4CCCC4=O)cc3)CC2)cc1Cl	549 nM
C=CCn1c(NCCc2ccccc2)nc2c1c(=O)n(C)c(=O)n2C	1830 nM
Cc1cc(C)nc(S/C=C/C(=O)c2ccccc2)n1	1720 nM
COc1ccc(NC(=O)COc2ccc(N(C)S(=O)(=O)c3ccc(Cl)cc3)cc2)cc1OC	1350 nM
O=C(Nc1cccc(Cl)c1Cl)C1CC(=O)N(c2ccc(Br)cc2)C1 (configuration not stated)	8230 nM
CC(C)=CCC/C(C)=C/CNC(=O)C[C@H]1C[C@H](C(=O)N(C(C)C)C(C)C)[C@@]2(C)c3[nH]c4cc(CCC(=O)N(C)C)ccc4c3CCN2C1=O	2050 nM
O=c1c(Br)c(Br)cnn1-c1ccccc1	1820 nM
CC(C)C[C@H]1CNC(=S)N1CC1CCN(CC2CCC(C(C)(C)C)CC2)CC1 (some centres not stated)	4050 nM
COC(=O)C1CN(C#N)N(c2ccc(Cl)cc2)C12c1ccccc1-c1ccccc12 (configuration not stated)	< 260 nM
c1ccc(CNc2c(-c3cccc(SC4CCCCC4)c3)nc3ccccn23)cc1	3460 nM
CCC(=O)N1c2ccc(S(=O)(=O)N3CCN(c4ccc([N+](=O)[O-])cc4)CC3)cc2CC1C (configuration not stated)	1930 nM
Nc1nc(N)c(-c2cccc(C(F)(F)F)c2)c(Cc2cccc(C(F)(F)F)c2)n1	3600 nM
COc1ccc(C2=NS(=O)(=O)N(C)C(C(=O)N3CCc4ccccc4C3)=C2)cc1OC	4990 nM
COc1ccc2c(c1OC)C(=O)OC2Nc1nc(-c2ccccc2)cs1 (configuration not stated)	4700 nM
O=S(=O)(NCc1ccncc1)c1ccc(F)c(F)c1	2090 nM
OCCCNc1nccc(-c2cc(Nc3cccc(Cl)c3)ncn2)n1	2610 nM

Structure (SMILES)	AC50
CCN(CC)c1ccc(CNc2nc3ccccc3n2CCN2CCCCC2)cc1	2640 nM
CC(C)(C)C(=O)Nc1ccc(NC(=O)c2ccco2)nc1	1170 nM
Cn1c(SCc2cccc(Br)c2)nc2ccccc2c1=O	7680 nM
Cc1cc(C(=O)COC(=O)c2ccccc2Br)c(C)n1CC1CCCO1 (configuration not stated)	> 70000 nM (inactive)
C=C(CN(C)C)C(=O)c1ccc(C)cc1C	770 nM
Cc1ccc(S(=O)(=O)NCc2ccncc2)cc1C	585 nM
O=C(Nc1ccc2nc3n(c(=O)c2c1)CCCC3)c1cc([N+](=O)[O-])ccc1F	361 nM
CCOC(=O)c1c(CSCc2ccccc2)oc2ccc(O)c(CN(C)C)c12	9790 nM
COc1cc2cc(C(=O)N3CC(COS(C)(=O)=O)c4ccc(O)cc43)[nH]c2c(OC)c1OC (configuration not stated)	< 260 nM
CCOC(=O)N1CCN(c2ccc(S(=O)(=O)N(Cc3ccccc3)Cc3ccccc3)cn2)CC1	2590 nM
C#CC(=O)N(c1ccc(OC)cc1OC)C(C(=O)NC1CCCC1)c1cccs1 (configuration not stated)	7120 nM
Cc1cccnc1CN1CCN(C(=O)c2cc(COc3ccc4ncccc4c3)on2)CC1	2100 nM
Nc1nc(N)c2cc(S(=O)(=O)c3cccc(C(F)(F)F)c3)ccc2n1	5220 nM
S=C(NCCc1ccccc1)Nc1cccc2cnccc12	922 nM
CC(=O)c1cccc(NS(=O)(=O)c2ccc(N/C=C\C(=O)c3ccc(C)cc3)cc2)c1	1510 nM
CC(C)CCNc1nc(N)c([N+](=O)[O-])c(N2CCCCCC2)n1	8790 nM
COc1cc2c(OC(C)=O)c3c(c(-c4ccc5c(c4)OCO5)c2cc1OC)C(=O)OC3	1800 nM
CC1=NN(c2nc3ccccc3[nH]2)C(=O)C1Cc1ccccc1 (configuration not stated)	4110 nM
COC(=O)C1=C(c2ccc(F)cc2OCc2ccccc2)C[C@@H]2CC[C@H]1N2C(=O)NCc1ccc(C(F)(F)F)cc1	9140 nM
Cc1cc(N2CCCC2=O)cc(C)c1S(=O)(=O)NCCOc1ccc(C(C)(C)C)cc1	1150 nM
Nc1nc(Cl)cc(N2CCC(c3cc(-c4ccc(Cl)cc4)n[nH]3)CC2)n1	2430 nM
COc1ccccc1/C=C/CN1CCC(n2nccc2NC(=O)CCc2ccccc2)CC1	1910 nM
CCC(=O)NC(c1ccco1)c1cc(Cl)c2cccnc2c1O (configuration not stated)	1310 nM
c1ccc(-c2cc(CSc3nc4ccccc4[nH]3)on2)cc1	3760 nM
